This note sets out measurements from US8293274B2, “Intestinal absorptive anti-tumor agent” (Kabushiki Kaisha Sangi, priority 2005, dated 2012).

The Cmax is the peak of the concentration-time curve. The Tmax is the time from dosing to the highest level. One may read the AUC(0-t) as the area under the concentration-time curve up to a stated or last time point.

The data set in a line: Intestinal absorption test of various antitumor agents (plasma concentration by gas/liquid chromatography). Here is the method:
Rats were fasted for 16 hours and then forced oral administration to the stomach was performed using an oral gastric tube for rats.
Blood was collected from the tail vein prior to administration and 15 and 30 minutes, 1, 2, 3, 4, 6, 8 and 24 hours after administration. The collected blood was centrifuged at 4° C. for 15 minutes at 3,000 rpm to obtain plasma, and then the plasma concentrations of the various antitumor agents were measured.
These concentrations were measured using gas chromatography and liquid chromatography.

Where [1] appears, read: bleomycin hydrochloride in plasma, rats fasted 16 hours, oral, 2.0 mg/kg.
Setting [2] is: male, Sprague-Dawley, rat, in vivo, po, 0.2 mg/kg.
Setting [3] is: male, Sprague-Dawley, rat, in vivo, po, 50 mg/kg.

Counter-ions that a name gives are not always drawn.

“bleomycin hydrochloride [Comparative Test Example 4-3]”: under setting [1], the AUC0-24 h was 520 ng·h/mL, the peak concentration (Cmax) amounted to 120 ng/mL and the Tmax came to 85.2 min.

As to `CC[C@]1(O)C[C@H]2CN(CCc3c([nH]c4ccccc34)[C@@](C(=O)OC)(c3cc4c(cc3OC)N(C=O)[C@H]3[C@@](O)(C(=O)OC)[C@H](OC(C)=O)[C@]5(CC)C=CCN6CC[C@]43[C@@H]65)C2)C1` [Comparative Test Example 4-4, vincristine sulfate], under setting [2], the AUC(0-t) came out at 1110 ng·h/mL, the peak level (Cmax) was 90 ng/mL and the Tmax was 49.8 min.

For `O=P1(NCCCl)OCCCN1CCCl` (stereo not drawn) [Comparative Test Example 4-2, ifosfamide], under setting [3], the AUC(0-t) came out at 1240 ng·h/mL, the Cmax amounted to 250 ng/mL and the time of peak concentration (Tmax) amounted to 45 min.
